The NIST ThermoML archive (doi:10.1021/je100287g)
Numbers after ± are expanded uncertainties.

Assay: cn = amount concentration of the nth substance listed, in mol/dm3
Conditions: 101 kPa, Liquid, digital conductivity meter (CM-180, Elico India)

Nc1ccc(S(=O)(=O)[N-]c2nccs2)cc1.[Na+] [sodium ((4-aminophenyl)sulfonyl)(thiazol-2-yl)amide] + O
electrical conductivity [S/m]
Conditions	c1 = 0.001	c1 = 0.002	c1 = 0.004	c1 = 0.006	c1 = 0.008	c1 = 0.01
283 K	0.0053 ± 0.0019	0.0101 ± 0.0018	0.0189 ± 0.0018	0.0281 ± 0.0018	0.0366 ± 0.0019	0.0468 ± 0.002
293 K	0.0064 ± 0.0024	0.0124 ± 0.0022	0.0233 ± 0.0022	0.0344 ± 0.0021	0.0447 ± 0.0023	0.0574 ± 0.0027
303 K	0.0078 ± 0.0029	0.0151 ± 0.0028	0.0288 ± 0.0027	0.0423 ± 0.0026	0.0545 ± 0.0028	0.07 ± 0.0034
313 K	0.00967 ± 0.0039	0.0195 ± 0.0034	0.0353 ± 0.0032	0.0516 ± 0.0031	0.0661 ± 0.0035	0.0866 ± 0.0041
